From US20250319105A1, “NEUROACTIVE STEROID FOR THE TREATMENT OF ALZHEIMER'S DISEASE” (SAGE THERAPEUTICS, INC., priority 2021, published 2025)
“Also recorded” adds a separate entry of the source.

What was measured:
[1] = system: participants with MCI or mild dementia due to AD; assay: Open-label study: global cognition, Montreal Cognitive Assessment (MoCA); type: in vivo, human; conditions: 3 mg once daily oral for 14 days
Excerpt: (§1) Additional objectives of the study were to assess the following: • PK profile of Compound 1 following administration of multiple doses as assessed by periodic PK sampling • Change from baseline on tests of executive function. • Change from baseline on tests of learning and memory. • Verbal Recognition Memory • Paired Associates Learning • Pattern Recognition Memory • Spatial Span • Change from baseline on tests of social cognition. • Emotion Recognition Task • Emotion Bias Task • Change from baseline on tests of psychomotor function. • Change from baseline on assessments of neuropsychiatric symptoms: • Change from baseline in performance on the Montreal Cognitive Assessment • Change from baseline in Clinical Global Impressions-Severity scores • Overall scores on Clinical Global Impressions-Improvement scales • Change from baseline in Amsterdam Instrumental Activities of Daily Living • Change from baseline in exploratory peripheral biomarkers • Amyloid PET Scan

[2] = Open-label study: PK sampling, plasma concentrations; type: in vivo, human; conditions: Day 7 and Day 14; 3 mg once daily oral with a meal
Excerpt: as §1

[3] = system: participants with MCI or mild dementia due to AD; assay: Open-label study: tests of learning and memory (PAL, PRM, VRM, Spatial Span); type: in vivo, human
Excerpt: as §1
The tests of Learning and Memory included Paired Associates Learning (PAL), which assesses how well the subject remembers the location of hidden objects; Pattern Recognition Memory (PRM), which assesses how well the subject remembers a pattern; and Verbal Recognition Memory […], which assesses how well the subject stores and retrieves verbal information.

[4] = system: participants with MCI or mild dementia due to AD; assay: Open-label study: tests of attention and psychomotor performance (RTI, PVT); type: in vivo, human; conditions: 3 mg once daily oral for 14 days
Excerpt: as §1
The tests of Attention and Psychomotor Performance included Reaction Time (RTI), which assesses how fast the subject can respond to a stimulus (weekly measure); Psychomotor Vigilance Task (PVT), which assesses how fast can the subject respond to a stimulus (daily measure).

[5] = system: participants with MCI or mild dementia due to AD; assay: Open-label study: tests of executive functioning (MTT, OTS, SWM, DSST, 2-Back); type: in vivo, human
Excerpt: as §1
The tests of Executive Functioning included (1) Multitasking Test (MTT), which assesses how well the subject manages conflicting information; (2) One Touch Stockings of Cambridge (OTS), which assesses how well the subject plans, holds onto, and manipulates information to solve a puzzle; (3) Spatial Working Memory (SWM), which assesses how well the subject develops and uses a strategy to find hidden information; (4) Digit Symbol Substitution Task (DSST), which assesses how efficiently can the subject complete a demanding task (daily measure); and (5) Two-Back Test (NBX), which asks is the symbol the same as that shown two symbols ago.

[6] = system: participants with MCI or mild dementia due to AD; assay: Open-label study: safety and tolerability (TEAEs, laboratory, vital signs, ECG); conditions: 3 mg once daily oral for 14 days
Excerpt: The Study comprised a 2-week screening period, a 1-week baseline period, a 2-week open-label treatment period, and a 2-week follow-up period. […] During the 1-week pre-treatment baseline period, patients underwent repeated cognitive testing using a comprehensive battery of tests to establish a robust cognitive baseline across multiple domains of cognitive function.
The key inclusion criteria for the subjects were as follows: • Be between the ages of 50 and 80 years, inclusive, at Screening • Meet the following criteria for MCI or mild dementia due to AD at Screening: • A memory complaint reported by the participant or his/her study partner • A CDR score of 0.5 to 1.0 (inclusive) with a memory box score ≥0.5 • Essentially preserved activities of daily living, in the opinion of the investigator. • Brain MRI report, obtained within the 2 years preceding the Baseline Period, that is consistent with the diagnosis of AD-MCI with no clinically significant findings of non-AD pathology that could account for the observed cognitive impairment • Have a score of 15 to 24 (inclusive) on the MoCA at Screening • Have an estimated premorbid IQ≥85 (as assessed by the Test of Premorbid Functioning, performed at Screening
The Primary objective of the study was to assess (1) the incidence of Treatment-Emergent Adverse Event (TEAE).
The secondary objectives of the study were to assess: • the percentage of Participants With Clinically Significant Changes in Vital Sign Measurements, clinical laboratory analytes, electrocardiograms (ECGs), and responses on the Columbia-Suicide Severity Rating Scale (C-SSRS).

[7] = 3 mg once daily oral for 14 days, change from baseline, Clinic/Weekly

C[C@H](CC[C@](C)(O)C(F)(F)F)[C@H]1CC[C@H]2[C@@H]3CC=C4C[C@@](C)(O)CC[C@]4(C)[C@H]3CC[C@]12C [Compound 1]
MoCA (Global), Directional Trend ([1]; change from baseline, Monthly): Improvement | MoCA score, mean CFB (change from baseline) ([1]; CFB at Day 28, n = 20): 2.3 | MoCA score, mean ([1]; Day 28, n = 20, baseline mean 20.5): (22.8 | Improvement in global cognition, assessed via MoCA ([1]; statistically significant): +2.3 pts | Plasma concentrations versus predicted range [2]: consistent with the predicted range | Paired Associates Learning, Directional Trend [3, 7]: no change (or slight worsening); also recorded: Mixed | Pattern Recognition Memory, Directional Trend [3, 7]: numerical improvement | Spatial Span, Directional Trend [3, 7]: no change (or slight worsening); also recorded: Mixed | Verbal Recognition Memory, Directional Trend [3, 7]: Improvement | Performance on tests of learning and memory ([3]; Day 14 vs baseline, 3 mg once daily oral): additional signals suggesting improved performance | Changes in attention or psychomotor processing [4]: No changes | Reaction Time, Directional Trend ([4]; change from baseline, Clinic/Weekly): No Change | Psychomotor Vigilance Task, Directional Trend ([4]; change from baseline, Mobile/Daily): No Change | 2-Back Test, Directional Trend [5, 7]: numerical improvement | Multitasking, Directional Trend [5, 7]: numerical improvement | One Touch Stockings, Directional Trend [5, 7]: numerical improvement | Spatial working Memory, Directional Trend [5, 7]: numerical improvement | Digit Symbol Substitution, Directional Trend ([5]; 3 mg once daily oral for 14 days, change from baseline, Mobile/Daily): numerical improvement | Performance from baseline on all tests of executive functioning ([5]; Day 14, 3 mg once daily oral): improved performance | Clinically significant laboratory abnormalities ([6]; 26 enrolled subjects): No clinically significant laboratory abnormalities | Clinically significant vital sign or ECG abnormalities ([6]; 26 enrolled subjects): No clinically significant vital sign or ECG abnormalities | Number of TEAEs ([6]; 26 enrolled subjects): 8 | Severe TEAEs, SAEs, or deaths ([6]; 26 enrolled subjects): No severe TEAEs, SAEs, or deaths | TEAEs resulting in study drug discontinuation or withdrawal from the study ([6]; 26 enrolled subjects): No TEAEs resulted in study drug discontinuation or withdrawal from the study | Mild TEAEs, n (%) ([6]; of 8 TEAEs): 4 (50%) | Moderate TEAEs, n (%) ([6]; of 8 TEAEs): 4 (50%) | Number of TEAEs considered related to study treatment ([6]; of 8 TEAEs): 6 | Number of subjects who experienced TEAEs ([6]; of the 26 enrolled subjects): 7
